Data on 16 compounds can be found in publication PMC5565203 (Journal of medicinal chemistry, 2015).

Entries after “also recorded” stand apart in the source; their conditions may differ.

One assay deals with human Mcl-1 (Homo sapiens, UniProt Q07820). Nature of the assay: FPA competition assay, displacement of FITC-Bak-BH3 peptide from Mcl-1. It is filed as binding. To be noted: for LE (ligand efficiency): binding to Mcl-1; for higher Mcl-1 Ki values compared to the corresponding four-atom linker analogs: three-atom linker compounds; for increased affinity for Mcl-1 compared to the initial fragment 2: four-atom linker compounds; for improvement in Mcl-1 affinity compared to the core fragment 3: compared to fragment 3.
human Mcl-1, sequence (Q07820 172-327): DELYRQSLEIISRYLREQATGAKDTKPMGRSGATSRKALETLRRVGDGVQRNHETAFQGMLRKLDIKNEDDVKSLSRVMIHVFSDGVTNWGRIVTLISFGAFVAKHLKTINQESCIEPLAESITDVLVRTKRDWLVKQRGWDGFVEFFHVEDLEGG

The target in another assay is cellular Mcl-1 (Homo sapiens, UniProt Q07820). In words: Biotin streptavidin pull-down experiment in K562 cell lysates. It counts as binding. To be noted: Western blot.
cellular Mcl-1, sequence (Q07820 whole entry): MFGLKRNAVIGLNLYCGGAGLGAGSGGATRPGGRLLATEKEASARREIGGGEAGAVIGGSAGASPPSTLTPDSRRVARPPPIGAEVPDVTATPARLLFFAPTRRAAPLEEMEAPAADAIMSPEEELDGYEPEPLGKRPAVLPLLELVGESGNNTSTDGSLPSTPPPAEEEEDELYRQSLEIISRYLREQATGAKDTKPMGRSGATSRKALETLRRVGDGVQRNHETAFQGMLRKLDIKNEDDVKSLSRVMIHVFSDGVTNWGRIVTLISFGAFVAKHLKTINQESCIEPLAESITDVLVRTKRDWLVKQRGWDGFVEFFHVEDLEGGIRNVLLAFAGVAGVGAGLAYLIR

On to `CC1Cn2c(C(=O)O)cc3cccc(c32)S1` (stereo not shown) [Compound 2], for which, at human Mcl-1, the “LE (ligand efficiency)” value is on record as 0.38.

Regarding `O=C(O)c1cc2cccc3c2n1CCS3` [Compound 3], the “LE (ligand efficiency)” value on human Mcl-1 is 0.39.

Turning to `O=C(O)c1cc2cccc3c2n1CCC3` [Compound 4], on human Mcl-1, the “LE (ligand efficiency)” value worked out at 0.35.

As to `Cc1c(C(=O)O)n2c3c(cccc13)SCC2` [Compound 5, 6-Methyl-2,3-dihydro-[1,4]thiazino[2,3,4-hi]indole-5-carboxylic acid], the “LE (ligand efficiency)” value on human Mcl-1 was found to be 0.41.

With `Cc1c(C(=O)O)n2c3c(cccc13)CCC2` [Compound 6, 1-Methyl-5,6-dihydro-4H-pyrrolo[3,2,1-ij]quinoline-2-carboxylic acid], on human Mcl-1, the “LE (ligand efficiency)” value turned out to be 0.35.

On to `Cc1c(C(=O)O)n2c3c(cccc13)OCC2` [Compound 7, 6-Methyl-2,3-dihydro-[1,4]oxazino[2,3,4-hi]indole-5-carboxylic acid], for which the “LE (ligand efficiency)” value at human Mcl-1 worked out at 0.41.

Consider `O=C(O)c1c(CCOc2cccc3ccccc23)c2cccc3c2n1CCS3` [Compound 16, 6-(2-(Naphthalen-1-yloxy)ethyl)-2,3-dihydro-[1,4]thiazino[2,3,4-hi]indole-5-carboxylic acid], for which the “higher Mcl-1 Ki values compared to the corresponding four-atom linker analogs” value at human Mcl-1 is listed as more than 10 fold.

As to `O=C(O)c1c(CCOc2cccc3ccccc23)c2cccc3c2n1CCC3` [Compound 17, 1-(2-(Naphthalen-1-yloxy)ethyl)-5,6-dihydro-4H-pyrrolo[3,2,1-ij]quinoline-2-carboxylic acid], the “higher Mcl-1 Ki values compared to the corresponding four-atom linker analogs” value on human Mcl-1 was more than 10 fold.

For `O=C(O)c1c(CCOc2cccc3ccccc23)c2cccc3c2n1CCO3` [Compound 18, 6-(2-(Naphthalen-1-yloxy)ethyl)-2,3-dihydro-[1,4]oxazino[2,3,4-hi]indole-5-carboxylic acid], the “higher Mcl-1 Ki values compared to the corresponding four-atom linker analogs” value at human Mcl-1 is listed as more than 10 fold.

On to `O=C(O)c1c(CCCOc2cccc3ccccc23)c2cccc3c2n1CCS3` [Compound 19, 6-(3-(Naphthalen-1-yloxy)propyl)-2,3-dihydro-[1,4]thiazino[2,3,4-hi]indole-5-carboxylic acid], for which the “increased affinity for Mcl-1 compared to the initial fragment 2” value (“increased affinity” for short) on human Mcl-1 is listed as “more than 2 orders of magnitude”.

`O=C(O)c1c(CCCOc2cccc3ccccc23)c2cccc3c2n1CCC3` [Compound 20, 1-(3-(Naphthalen-1-yloxy)propyl)-5,6-dihydro-4H-pyrrolo[3,2,1-ij]quinoline-2-carboxylic acid]: the “increased affinity” value at human Mcl-1 is “more than 2 orders of magnitude”.

As to `O=C(O)c1c(CCCOc2cccc3ccccc23)c2cccc3c2n1CCO3` [Compound 21, 6-(3-(Naphthalen-1-yloxy)propyl)-2,3-dihydro-[1,4]oxazino[2,3,4-hi]indole-5-carboxylic acid], the “increased affinity” value on human Mcl-1 was “more than 2 orders of magnitude”.

As to `O=C(O)c1c(CCCOc2ccc3c(c2)CCCC3)c2cccc3c2n1CCS3` [Compound 28, 6-(3-((5,6,7,8-Tetrahydronaphthalen-2-yl)oxy)propyl)-2,3-dihydro-[1,4]thiazino[2,3,4-hi]indole-5-carboxylic acid], on human Mcl-1 (compared to regioisomer 26 and 1-naphthyl analog 19), the “reduction in affinity to Mcl-1” value was 3 fold.

Regarding `Cc1cc(OCCCc2c(C(=O)O)n3c4c(cccc24)SCC3)ccc1Cl` [Compound 29, 6-(3-(4-Chloro-3-methylphenoxy)propyl)-2,3-dihydro-[1,4]thiazino[2,3,4-hi]indole-5-carboxylic acid], the “improvement in Mcl-1 affinity compared to the core fragment 3” value on human Mcl-1 stood at 240 fold.

For `Cc1cc(OCCCc2c(C(=O)O)n3c4c(cccc24)SCC3)cc(C)c1Cl` [Compound 30, 6-(3-(4-chloro-3,5-dimethylphenoxy)propyl)-2,3-dihydro-[1,4]thiazino[2,3,4-hi]indole-5-carboxylic acid], at human Mcl-1, the “improvement in Mcl-1 affinity compared to the core fragment 3” value is given as 720 fold.

`Cc1cc(OCCCc2c(C(=O)O)n3c4c(c(Cl)ccc24)CCC3)cc(C)c1Cl` [Compound 34, 7-chloro-1-(3-(4-chloro-3,5-dimethylphenoxy)propyl)-5,6-dihydro-4H-pyrrolo[3,2,1-ij]quinoline-2-carboxylic acid]: the “inhibition of biotin-MS-1 pulldown of cellular Mcl-1” value against cellular Mcl-1 is reported as “blocks the interaction with biotin MS-1 in a dose-dependent manner; also recorded: inhibits binding of biotin-MS-1 to Mcl-1 in cell lysates”.
